Source: patent US20180000778A1, “SMALL MOLECULE ANTAGONISTS OF DUSP5 AND METHODS OF USE” (THE MEDICAL COLLEGE OF WISCONSIN, INC., priority 2015, published 2018)
Several values for one entry are separate records, joined by “and”; a condition that tells them apart may be missing. Equal values may be shown once. Where a name gives a salt, the structure may show the parent alone. Values belong to the compound of their own block, whether it stands above or below them.

Key:
phosphatase [1] = settings: cited from earlier work
full-length DUSP5 = biological target: T1, full-length DUSP5 (Homo sapiens, UniProt Q16690); assay: ERK dephosphorylation assay, full-length DUSP5 with pERK2 substrate, western blot; assay type: biochemical
T1 construct: an assay was development using ERK2 and full-length DUSP5
T1 sequence (Q16690 1-384): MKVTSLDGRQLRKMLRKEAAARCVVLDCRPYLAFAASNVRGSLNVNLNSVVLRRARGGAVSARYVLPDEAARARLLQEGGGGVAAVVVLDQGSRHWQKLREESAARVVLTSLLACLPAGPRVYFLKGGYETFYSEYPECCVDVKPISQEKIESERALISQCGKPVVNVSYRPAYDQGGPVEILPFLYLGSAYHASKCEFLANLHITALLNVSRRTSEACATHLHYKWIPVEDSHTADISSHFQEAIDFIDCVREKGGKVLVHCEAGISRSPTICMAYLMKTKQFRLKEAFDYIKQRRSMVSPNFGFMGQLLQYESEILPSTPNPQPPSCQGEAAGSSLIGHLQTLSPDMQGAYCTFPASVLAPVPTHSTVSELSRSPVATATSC
Procedure: ERK Dephosphorylation Assay.
For this assay, 10 ng of GST-tagged recombinant phosphorylated ERK2 (R&D Systems, 1230-KS) was incubated with and without the indicated DUSP5 proteins (0.5 nM final concentration) for 15 min at room temperature, with or without the indicated drugs. The reactions were halted with 2× Laemmli sample buffer and subjected to SDS-PAGE. The proteins were transferred to polyvinylidene difluoride (PVDF) and immunoblotted using antibodies to pERK (Cell Signaling Tech., #9106) and Total ERK (Cell Signaling Tech., #9102). Bound antibodies were visualized using horseradish peroxidase-linked anti-mouse IgG (Cell Signaling Tech, #7076S) and anti-rabbit IgG (Cell Signaling Tech, #7074S), respectively, and ECL reagents (Pierce, 34708) according to the manufacturer's protocol. IC50s were calculated using GraphPad Prism 6 software.
And, the native substrate for DUSP5 is the pERK2 protein, which is much larger and capable of a more complicated range of inter-molecular interactions that the pNPP substrate (which is intended only to mimic the phospho-tyrosine of pERK). […] To this end, an assay was development using ERK2 and full-length DUSP5, monitoring pERK levels in a western blot, as a function of pERK2 substrate concentration. […] This surprising increase in potency for CSD3-2320 (but not NTS) with full length DUSP5 underscores the importance of performing secondary assays with biologically relevant forms of enzyme and substrate.

DUSP5 PD(WT) [2] = biological target: T2, DUSP5 PD(WT) (Homo sapiens, UniProt Q16690); assay: pNPP phosphatase activity assay with DUSP5 PD(WT); assay type: biochemical
T2 construct: hexa-histidine (N); made in house; host or cells: E. coli BL21(DE3)
T2 sequence (Q16690 178-319 limits assumed): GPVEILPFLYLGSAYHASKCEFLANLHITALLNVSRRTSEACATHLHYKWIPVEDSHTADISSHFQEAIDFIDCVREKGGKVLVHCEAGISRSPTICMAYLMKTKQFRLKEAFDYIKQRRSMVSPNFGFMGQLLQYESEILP
From the text: p-Nitrophenolphosphatase (pNPP) Activity Assay.
To measure enzymatic activity of the DUSP5 PD and the inhibitory capacity of selected molecules, an in vitro phosphatase assay was developed based on previous studies (27). In this assay, DUSP5 PD dephosphorylates the substrate p-nitrophenol phosphate (pNPP, Sigma Aldrich), yielding p-nitrophenolate, which absorbs at 405 nm with an extinction coefficient of 18,000 M-1 cm-1.
Thus, an increase in absorbance at 405 nm corresponds to the turnover of pNPP top-nitrophenolate. The assay was initially optimized in 1 mL quartz cuvettes, then was subsequently optimized for and validated in a 96-well plate format. All IC50 values were obtained using the 96-well plate assay format (see below). The assay buffer contained 100 mM Tris, 100 mM sodium chloride, 5 mM magnesium chloride, and 1 mM dithiothreitol (DTT) at pH 7.5. The pNPP substrate was prepared as a 50 mM stock by dissolving the solid substrate in assay buffer. The DUSP5 PD and pNPP were assayed initially in a cuvette (1 mL total volume) and initial velocities were fitted to the Michaelis-Menten equation (1)
where v is the initial velocity, Vmax is the maximum velocity, Km is the Michaelis constant, and [S] is the concentration of pNPP. Data were fitted using a nonlinear least squares fit to eq. 1, with GraphPad Prism 6 software.
For the 96-well plate validation assay, sodium orthovanadate (Sigma Aldrich) was utilized as a positive control for inhibition (Swarup et al., Biochem Biophys Res Commun. 1982; 107:1104-9.) at a final concentration of 10 μM, to completely block activity. All plate assays were performed in standard 96-well clear bottom plates (Thermo Scientific Nunc) with a total assay volume of 200 μL, using a SpectraMax M5 Microplate Reader (Molecular Devices). The plate validation assay was performed with replicate columns of positive control wells, negative control wells and blank wells. Blank columns contained only buffer and pNPP. Negative control (uninhibited) contained buffer, pNPP, and DUSP5 PD; and, positive control contained the same components, but also contained 10 μM sodium orthovanadate. The plate was then shaken and allowed to equilibrate in the spectrophotometer at 25° C. for 30 min. After incubation, 4 μL of a […] was dispensed into appropriate wells utilizing a single-channel pipette. This produced a final enzyme concentration of 1 μM. Before a read was taken, the plate was shaken for five seconds. The initial rate for the DUSP5 PD reaction was linear for approximately 90 min; and, the plate was kept in the spectrophotometer at 25° C. for an additional 80 min after the kinetic read. The endpoint reading was subsequently taken at 90 min after initiation of reaction. Slopes from the kinetic read, as well as single-point absorbance values at the 90-minute endpoint read, were then averaged. For blank wells and positive control wells, both slope values (continuous assay) and single point absorbance values (fixed time assay) were approximately zero, as expected. Standard deviations were calculated and a Z′ value (Zhang et al., J Biomol Screening. 1999; 4:67-73) subsequently determined using the following equation: […]
IC50 values were obtained using the assay described above, in 96 well plates. The maximum inhibitor concentration screened in any plate was […] and the minimum was 1.5 μM. The IC50 plate was designed so that the first column of wells served as blanks, with wells containing only buffer and substrate. The second column of wells functioned as the plate negative control, with each well containing buffer, substrate and enzyme. The remaining wells in the plate contained buffer, substrate, enzyme, and varying amounts of inhibitor, with inhibitor concentration increasing from left to right across the plate. Data points were collected in triplicate, and inhibitor concentrations were chosen to provide data equally spread on a logarithmic scale. […]

DUSP5 (PD)-WT = biological target: T3, DUSP5 (PD)-WT (Homo sapiens, UniProt Q16690); assay: Phosphatase inhibition profiles (Table 4), initial rates; assay type: biochemical; settings: read-out: IC50 DUSP5 (PD)-WT (mean ± SE)
T3 construct: hexa-histidine (N); made in house; host or cells: E. coli BL21(DE3)
T3 sequence (Q16690 178-319): T2 sequence (Q16690 178-319 limits assumed)

PTPN1 = biological target: T4, PTPN1 (Homo sapiens, UniProt P18031); assay: as above; assay type: biochemical; settings: read-out: IC50 PTPN1 (mean ± SE)
T4 sequence (P18031 1-435): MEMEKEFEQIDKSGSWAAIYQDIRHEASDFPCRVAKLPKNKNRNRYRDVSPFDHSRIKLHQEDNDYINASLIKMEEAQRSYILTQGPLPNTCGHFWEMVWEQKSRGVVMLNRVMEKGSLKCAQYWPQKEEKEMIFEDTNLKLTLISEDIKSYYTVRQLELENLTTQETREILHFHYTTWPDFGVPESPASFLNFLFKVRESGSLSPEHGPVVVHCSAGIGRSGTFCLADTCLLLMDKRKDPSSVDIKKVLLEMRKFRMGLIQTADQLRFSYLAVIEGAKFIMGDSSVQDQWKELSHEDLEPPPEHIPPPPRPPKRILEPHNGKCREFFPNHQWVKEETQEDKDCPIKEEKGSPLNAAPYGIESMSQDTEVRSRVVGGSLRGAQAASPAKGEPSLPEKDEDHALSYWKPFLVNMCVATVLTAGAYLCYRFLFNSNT

[3] = Aggregation of compounds (nephelometry; detergent treatment); assay type: physicochemical
Procedure: Nephelometry is a technique for measuring the relative aggregation of particles in solution, based on the light-scattering properties of molecular aggregates (30). To explore the ability of the chemicals studied herein to form aggregates, which can lead to artifactual inhibition effects, nephelometry was performed. Compounds were tested for aggregation in 96-well plates using a buffer containing 100 mM Tris base, 100 mM sodium chloride, and 5 mM magnesium chloride at pH 7.5. Each compound analyzed in these experiments contained concentrations of compound ranging from 10-100 μM, recorded in quadruplet. Each plate was analyzed at two separate gain values of 52 and 72. Data were collected using a BMG NEPHELOstar Plus, equipped with a 635 nm laser.
To investigate whether Suramin aggregates in solution, a property often investigated with small molecules, we performed detergent treatment assays. […] NTS and Suramin were compared using DUSP5 PD IC50 assays performed with and without detergent. […] We concluded that Suramin forms aggregates in vitro which can lead to non-specific protein inhibition effects. Beyond any adverse implications for repurposing Suramin in this project, the aggregation phenomenon raises more global concerns regarding the current clinical use of Suramin, and may in part explain some of the known toxicity associated with Suramin (32).

SHP-1 = SHP-1 (Homo sapiens, UniProt P29350); assay: NCI compound library screen, phosphatase inhibitory activity; assay type: biochemical
PTP1B = PTP1B (Homo sapiens, UniProt P18031); assay: as above; assay type: biochemical
phosphatase [4] = assay: Phosphatase inhibitory activity (Example 3, range of activity); assay type: biochemical
[5] = test system: pERK levels in HUVEC cells; assay: pERK levels in HUVEC cells, western blot; assay type: cell-based, Human; settings: HUVECs incubated 2 hours, pERK relative to total ERK; Na3VO4 at 200 μM
Procedure: Cell Culture and Western Blots.
Human Umbilical Vein Endothelial Cells (HUVECs) were maintained in EBM2 media (Lonza, CC-3156) supplemented with a combined serum and growth factor kit (Lonza, CC-4176). Cells were incubated with the indicated concentrations of drug for 2 h and lysed with RIPA buffer (Sigma, R0278) on ice. Cell lysates were cleared by centrifugation at 16,300×g for 30 min. The resulting supernatants were isolated and protein concentration determined by Lowry assay (DC protein assay, BioRad). 2× laemmli sample buffer was added to equal amounts of protein and separated by SDS-PAGE. The protein gels were transferred to polyvinylidene difluoride (PVDF) and immunoblotted using antibodies to phosphorylated ERK (Cell Signaling, #9106) and total ERK (Cell Signaling, #9102). Bound antibodies were visualized using horseradish peroxidase-linked anti-rabbit IgG, anti-mouse IgG (Cell Signaling Tech., #7074 and #7076) and ECL reagents (Thermo Scientific, 34080) according to the manufacturer's protocol.

DUSP5 PD(WT) [6] = biological target: T2, DUSP5 PD(WT); assay: pNPP phosphatase activity assay with DUSP5 PD(WT); assay type: biochemical; settings: 1 mL cuvettes, pNPP substrate

Sequence of SHP-1 (P29350 whole entry): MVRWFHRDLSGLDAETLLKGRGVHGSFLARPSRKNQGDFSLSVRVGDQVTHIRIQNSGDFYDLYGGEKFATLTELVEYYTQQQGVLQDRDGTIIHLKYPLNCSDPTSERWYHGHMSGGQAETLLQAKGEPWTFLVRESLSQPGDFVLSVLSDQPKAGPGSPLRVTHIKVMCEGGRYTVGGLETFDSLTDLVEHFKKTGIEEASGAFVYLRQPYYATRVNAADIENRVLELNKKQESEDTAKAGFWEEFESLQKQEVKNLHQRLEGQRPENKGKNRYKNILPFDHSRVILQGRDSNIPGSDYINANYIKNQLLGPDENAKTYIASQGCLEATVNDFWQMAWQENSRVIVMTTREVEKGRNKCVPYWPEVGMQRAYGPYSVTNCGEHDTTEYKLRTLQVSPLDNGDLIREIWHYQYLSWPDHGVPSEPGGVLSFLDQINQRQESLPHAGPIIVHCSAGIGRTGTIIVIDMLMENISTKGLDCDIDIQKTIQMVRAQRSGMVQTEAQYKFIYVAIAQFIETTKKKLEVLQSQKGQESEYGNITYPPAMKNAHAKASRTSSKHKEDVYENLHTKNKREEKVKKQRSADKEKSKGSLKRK

IC50 (full-length DUSP5; full-length DUSP5, pERK/ERK2 substrate): 221 ± 87 µM
SMILES: O=S(=O)(O)c1ccc2c(S(=O)(=O)O)cc(S(=O)(=O)O)cc2c1 [NTS, naphthalene 1,3,6-trisulfonate]

IC50's, range in words (DUSP5 PD(WT) [2]; enzyme inhibition (FIG. 3)): mM range
SMILES: O=S(=O)(O)c1cc(S(=O)(=O)O)c2[nH]c3c(S(=O)(=O)O)cc(S(=O)(=O)O)cc3c2c1 [RR506, Carbazole-1,3,6,8-tetrasulfonic acid, Tetrasodium Salt]

IC50 (DUSP5 (PD)-WT): 26.4 ± 7.2 µM
IC50 (PTPN1): 106 ± 0.1 µM
SMILES: O=S(=O)(O)c1cc(Oc2cc(S(=O)(=O)O)cc(S(=O)(=O)O)c2O)c(O)c(S(=O)(=O)O)c1 [RR533]

aggregation [3]: do not aggregate
IC50 (PTPN1): > 1000 µM
phosphatase inhibitory activity (SHP-1): phosphatase inhibitory activity
phosphatase inhibitory activity (PTP1B): phosphatase inhibitory activity
range in which active (phosphatase [4]; monomer): ~1e-06 mM
SMILES: Nc1cccc2c(O)cc(S(=O)(=O)O)cc12 [RR535]

aggregation [3]: do not aggregate
IC50 (DUSP5 (PD)-WT): 30 ± 3 µM
IC50 (PTPN1): 2.5 ± 0.1 µM
range in which active (phosphatase [4]; dimer): ~30 mM
SMILES: O=S(=O)(O)c1cc(O)c2cccc(N=Nc3cccc4c(O)cc(S(=O)(=O)O)cc34)c2c1 [RR601]

Further lines, the compound ahead of its results:

SMILES: O=S(=O)(O)c1ccc2cc(N=Nc3cc(S(=O)(=O)O)c4cccnc4c3O)ccc2c1 [NSC-87877]
range of phosphatase inhibition, published compound (phosphatase [1]): ~1.7 mM

SMILES: O=S(=O)([O-])c1cc2c(O)c(c1)Cc1cc(S(=O)(=O)[O-])cc(c1O)Cc1cc(S(=O)(=O)[O-])cc(c1O)Cc1cc(S(=O)(=O)[O-])cc(c1O)C2.[Na+].[Na+].[Na+].[Na+] [RR701]
activity in DUSP5:pERK assay, in words (full-length DUSP5; in vitro, western blot): robust activity

SMILES: Cc1ccc(C(=O)Nc2ccc(S(=O)(=O)O)c3cc(S(=O)(=O)O)cc(S(=O)(=O)O)c23)cc1NC(=O)c1cccc(NC(=O)Nc2cccc(C(=O)Nc3cc(C(=O)Nc4ccc(S(=O)(=O)O)c5cc(S(=O)(=O)O)cc(S(=O)(=O)O)c45)ccc3C)c2)c1 [Suramin]
inhibition at 1 µM (DUSP5 PD(WT) [2]; 1 μM Suramin, 5 mM pNPP, increasing Triton X-100, read-out: plateau level inhibition with increasing detergent): 30%
effect of detergent on inhibition (DUSP5 PD(WT) [2]; IC50 measurement in presence and absence of 0.5% Triton): loss of some inhibitory capability in the presence of detergent
mechanism of inhibition (DUSP5 PD(WT) [2]; inhibition profile versus pNPP): competitive inhibition
Ki (DUSP5 PD(WT) [2]; read-out: Ki, competitive inhibition, varied pNPP and inhibitor): 24.6 µM and 25 µM
effect on pERK levels [5]: significant decrease in pERK levels
aggregation [3]: Aggregates

SMILES: [Na+].[Na+].[Na+].[O]=[V]([O-])([O-])[O-] [sodium orthovanadate]
effect on pERK levels [5]: expected increase in pERK levels
IC50 (DUSP5 PD(WT) [6]): 0.008 ± 0.008 µM
